Measured values as given in patent US20060142591A1, “DAPH analogs and inhibition of protein aggregation” (priority 2004, published 2006).

Legend:
[1] = system: RML strain of mouse scrapie; assay type: in vivo, CD1 mice
Aβ42Total = Aβ42Total (Homo sapiens, UniProt P05067); assay: Reversal of aggregated Aβ42Total fibrils, ThT assay; assay type: biochemical; settings: depends on the concentration of compound
Procedure: Aβ42Total is unfractionated synthetic Aβ42 that was dissolved in water at pH 8-9 by using NH3 or at pH 10-11 by using dilute NaOH and stored at −40° C. Experimental samples were prepared by diluting the stock solution of Aβ42 to 10 μM (unless noted otherwise) in Tyrode's solution 2 mM Ca (150 mM NaCl/3 mM KCl/10 mM Hepes, pH 7.4/2 mM CaCl2/10 mM D-glucose, pH 7.4/0.02% Na azide). The synthetic Aβ42 was dissolved in water at a pH of ˜8 and then stored at −20° C. until diluted into Tyrode's Solution/2 mM Ca (pH 7.4). This preparation is “Aβ42Total”. To aggregate for use in experiments, it was preincubated for 24 or 48 h at 37° C. without stirring. To measure β-sheet formation, ThT was added to protein or peptide reaction mixtures, such as Aβ samples or NM aggregation, NM disaggregation or NM seed reaction mixtures following incubation and fluorescent measurements were read according to standard procedures. […] ThT fluorescence is measured at room temperature (e.g., in a Fluoroskan II at […] or a FLUOstar Optima plate-reader (BMG Lab Technologies, Durham, N.C.) at Ex=440 nm and Em=480 nm). The ThT fluorescence spectrum is measured in an spectrofluorimeter (e.g., f4500, Hitachi, Tokyo) at Ex=435 nm and Em=450-550 nm. Fibrils of aggregated Aβ42Total give a strong ThT fluorescence signal, indicating high β-sheet content.

Sup35 NM protein [2] = biological target: T1, Sup35 NM protein (Saccharomyces cerevisiae, UniProt P05453); assay: NM seed assay; assay type: biochemical, yeast; settings: disaggregated monomers used as seed at 2% or 5%
T1 construct: Soluble Sup35 NM protein (“NM”) was tested for aggregation
T1 sequence (P05453 1-253 limits assumed): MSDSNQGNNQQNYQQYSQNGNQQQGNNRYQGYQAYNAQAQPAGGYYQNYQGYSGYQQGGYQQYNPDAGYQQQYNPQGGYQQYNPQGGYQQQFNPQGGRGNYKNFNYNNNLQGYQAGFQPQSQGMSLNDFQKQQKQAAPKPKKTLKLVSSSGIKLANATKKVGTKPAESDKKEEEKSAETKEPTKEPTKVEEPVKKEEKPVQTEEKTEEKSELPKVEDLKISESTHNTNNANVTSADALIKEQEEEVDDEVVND
Procedure: Monomers of NM disaggregated by treatment with DAPH and DAPH analogs (see below) were tested for the ability to “seed” new NM fibers. Disaggregated monomers were used at 2% or 5% as described above for the NM aggregation assay.
(§1) Congo red was added to NM aggregation, NM disaggregation or NM seed reaction mixtures following incubation to a final concentration of 10 μM. After 30 min at 25° C., absorbances at 320, 477, and 540 nm were determined. Congo red dye binding was measured by using the equation [(OD540/25,295)−(OD477/46,306)] (Klunk et al., J. Histochem. Cytochem. 37:1273-1279, 1989) as described by Schirmer and Lindquist (Proc. Natl. Acad. Sci USA 94:13932-13937, 1997).

Aβ fibrils = Aβ fibrils (Homo sapiens, UniProt P05067); assay: Reversal of preformed Aβ fibrils, observed by EM; assay type: biochemical; settings: Aβ aggregated 24 h at pH 7.4, then another 24 h with equimolar compound; vehicle 1% DMSO
Chain of Aβ fibrils (P05067 672-713 limits assumed): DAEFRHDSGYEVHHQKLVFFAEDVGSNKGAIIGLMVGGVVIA
Procedure: Aβ42Total is unfractionated synthetic Aβ42 that was dissolved in water at pH 8-9 by using NH3 or at pH 10-11 by using dilute NaOH and stored at −40° C. Experimental samples were prepared by diluting the stock solution of Aβ42 to 10 μM (unless noted otherwise) in Tyrode's solution 2 mM Ca (150 mM NaCl/3 mM KCl/10 mM Hepes, pH 7.4/2 mM CaCl2/10 mM D-glucose, pH 7.4/0.02% Na azide). The synthetic Aβ42 was dissolved in water at a pH of ˜8 and then stored at −20° C. until diluted into Tyrode's Solution/2 mM Ca (pH 7.4). This preparation is “Aβ42Total”. To aggregate for use in experiments, it was preincubated for 24 or 48 h at 37° C. without stirring. Negative-staining EM was used to visualize the kinetics and morphology of Aβ42 fibrillization over time, with and without the presence of DAPH analogs. Samples of 10 μM seedless Aβ42 (Aβ4230k) were incubated for a predetermined amount of time at 37° C. and vigorously vortex mixed immediately before and after incubation. Very small volumes, typically 5 μl, of each sample were absorbed for 2-4 min onto glow-discharged, carbon-coated, Formvar-filmed 400 mesh copper grids and gently wicked away with filter paper. […] Measurements were analyzed, and width-distribution histograms were produced by using EXCEL 98 (Microsoft). […]

Sup35 NM protein [3] = biological target: T1, Sup35 NM protein; assay: NM aggregation assay; assay type: biochemical, yeast; settings: soluble NM 5 μM
Procedure: Soluble Sup35 NM protein (“NM”) was tested for aggregation in the presence of DAPH, DAPH analogs or vehicle control (DMSO). NM protein (5 μM) was aggregated in the presence of DAPH (0-20 μM), DAPH analogs (0-20 μM) or DMSO (0-2% v/v). The assay mixture was incubated for 24 hr at 25° C., then tested for Congo Red binding to determine the extent of NM fiber formation.
as §1
Soluble Sup35 NM (“NM”) at 5 μM was tested for aggregation in the presence of DAPH, DAPH analogs or vehicle control (DMSO). Aggregation of NM was inhibited by up to 100% (see FIG. 1). Inhibition of NM aggregation was concentration dependent.

amyloid β (Aβ) fibers = amyloid β (Aβ) fibers (Homo sapiens, UniProt P05067); settings: Blanchard et al., PNAS 101:14326-14332, 2004; cited from earlier work
Chain of amyloid β (Aβ) fibers (P05067 672-713 limits assumed): as above

Aβ4230k = Aβ4230k (Homo sapiens, UniProt P05067); assay: Coincubation with seedless Aβ42 (fibrillization), observed by EM; assay type: biochemical
Chain of Aβ4230k (P05067 672-713 limits assumed): as above

NM protein fibers = biological target: T2, NM protein fibers (Saccharomyces cerevisiae, UniProt P05453); assay: NM disaggregation assay; assay type: biochemical, yeast
T2 construct: Soluble Sup35 NM protein (“NM”) was tested for aggregation
T2 sequence (P05453 1-253 limits assumed): T1 sequence (P05453 1-253 limits assumed)
Procedure: For determining disaggregation of preformed aggregates, NM protein fibers (equivalent to 5 μM monomer) were incubated with DAPH (0-20 μM), DAPH analogs (0-20 μM) or DMSO (0-2% v/v). The assay mixture was incubated for 24 hr at 25° C., then tested for Congo Red or Thioflavin T binding to determine the extent of NM fibers remaining.
as §1
To measure β-sheet formation, ThT was added to protein or peptide reaction mixtures, such as Aβ samples or NM aggregation, NM disaggregation or NM seed reaction mixtures following incubation and fluorescent measurements were read according to standard procedures.
For measurement, each sample preferably is split into multiple wells of a 96-well black-bottom plate (e.g., catalog no. 35-3943, VWR International, Westchester, Pa.). ThT fluorescence is measured at room temperature (e.g., in a Fluoroskan II at […] or a FLUOstar Optima plate-reader (BMG Lab Technologies, Durham, N.C.) at Ex=440 nm and Em=480 nm). The ThT fluorescence spectrum is measured in an spectrofluorimeter (e.g., f4500, Hitachi, Tokyo) at Ex=435 nm and Em=450-550 nm.

[4] = 1% brain homogenate incubated 48 hours with compound, lower doses of infectivity, log rank test

Chain of Aβ42Total (P05067 672-713 limits assumed): as above

Compound | effect on survival / prion titers (in words) [1, 4] | effect of treatment at high doses of infectivity ([1]; high doses of infectivity) | time for reversal of the fibrils, as detected by the ThT assay (Aβ42Total) | ability of NM protein to reform NM fibers following disaggregation (Sup35 NM protein [2]) | reversal of aggregation of Aβ fibrils as determined by EM (Aβ fibrils) | effect on NM fiber assembly / NM aggregation (in words) (Sup35 NM protein [3]) | inhibition of NM aggregation (Sup35 NM protein [3]; compound 0-20 μM, 24 hr at 25° C., Congo Red binding, FIG. 1, concentration dependent) | disaggregation of amyloid β (Aβ) fibers (amyloid β (Aβ) fibers) | elimination of higher-order structure, EM studies (Aβ4230k; 24 h incubation) | elimination of the usual fibrils, as observed by EM (Aβ4230k; coincubation of Aβ4230k with equimolar compound (10:10 μM), 1% DMSO) | disaggregation of preformed NM fibers as compared to the DMSO control (NM protein fibers; preformed NM aggregates, FIGS. 2 and 3) | dissolution of NM fibers as measured by Congo Red binding (NM protein fibers; preformed NM fibers, FIG. 2) | dissolution of NM fibers as measured by ThT fluorescence (NM protein fibers; preformed NM fibers, FIG. 3) | median survival longer than DMSO controls ([1]; 1% brain homogenate incubated 48 hours with compound, lower doses of infectivity, CD1 mice n=4 per group, log rank test)
O=C1NC(=O)c2cc(Nc3ccccc3)c(Nc3ccccc3)cc21 [DAPH, 4,5-dianilinophthalimide] | did not significantly alter survival | not observed | takes only very few minutes | essentially unable to reform NM fibers | reversed the aggregation of the Aβ fibrils | antagonizes NM fiber assembly | up to 100% | can disaggregate amyloid β (Aβ) fibers | nearly complete elimination of higher-order structure | almost complete elimination of the usual fibrils | effective in disaggregation of preformed fibers | partially dissolve NM fibers | partially dissolve NM fibers | 
COc1ccc(Nc2cc3c(cc2Nc2ccc(OC)cc2)C(=O)NC3=O)cc1 [DAPH-12, 5,6-Bis-(4-methoxy-phenylamino)-isoindole-1,3-dione] | reduction in prion titers |  | takes only very few minutes |  |  |  |  |  |  |  |  |  |  | at least 60 days
